Laboratory results published in patent publication US10479814B2, “Adenosine receptor activation reagent and the uses of thereof” (Zhejiang Subtropical Crops Research Institute, priority 2014, dated 2019).
“Also recorded” adds a separate entry of the source.

Experiments:
[1] = test system: mouse kidney ischemia reperfusion; test: kidney ischemia reperfusion: electron microscope observation of renal tubular epithelial cells; assay type: in vivo
Protocol: Male C57BL/6 mice 20-25 g, after one week of adaptive feeding to the animals, were randomly divided into eight groups: sham-operation group, IR group, HEA 5 mg/kg group, HEA 7 mg/kg group, HEA 10 mg/kg group, DPCPX (1 mg/kg) group, DPCPX (1 mg/kg)+HEA (5 mg/kg) group and DPCPX (1 mg/kg)+HEA (7.5 mg/kg) group. The mouse was weighed before operation, then peritoneally injected with pentobarbital sodium 50 mg/kg to anaesthetize the mouse, abdomen was opened by ventromedial incision, blunt dissection and the kidney pedicle was sufficiently exposed, renal ischemia was induced by clapping two side kidney pedicle with non-invasive bulldog clamp, the color of kidney change from bright red to purple black immediately, determination method of success of the experiment model can refer to the methods in literature 7 and 8. At time of 30 min of ischemia the bulldog clamp was loosened, the perfuse was restored, the color of kidney changed gradually from dark red to bright red, showing re perfusion was successful. The wound was stitched. The animals were freely fed water and food. In the sham-operation group, the mice only received operation of abdomen open, kidney pedicle and abdomen suture. The kidney IR mode were made for the mice in the remaining groups. In each drug group, before 15 minute of ischemia, the drug with corresponding concentration was speritoneally injected, in drug combination group, 15 minutes before ischemia, the drugs were given simultaneously. The section was observed using Transmission Electron Microscope ([…], from Hitachi Co. limited). The observation was conducted in Electron Microscoper Room of Wenzhou Medical University.

[2] = test system: TNF-α mRNA in mouse renal cortex; test: kidney ischemia reperfusion: real time quantitative PCR of TNF-α; assay type: in vivo; settings: vs IR group; HEA 5, 7.5, 10 mg/kg; DPCPX 1 mg/kg; DPCPX 1 mg/kg+HEA
Protocol: (§1) Male C57BL/6 mice 20-25 g, after one week of adaptive feeding to the animals, were randomly divided into eight groups: sham-operation group, IR group, HEA 5 mg/kg group, HEA 7 mg/kg group, HEA 10 mg/kg group, DPCPX (1 mg/kg) group, DPCPX (1 mg/kg)+HEA (5 mg/kg) group and DPCPX (1 mg/kg)+HEA (7.5 mg/kg) group. […]
(§2) The MPO analysis was conducted according to the specification in the kit. 9.2.6 Real time quantitative PCR analysis of gene expression of ICAM-1, TNF-α and IL-1β; the sequence of primer used in RT-PCR reaction system is as follow:
(§3) PCR amplification reaction system: IQ SYBR Green Super mix 12.5 μL, Forward primer (10 μmo/L) 1 μL, Reverse primer (10 μmol/L) 1 μL, cDNA (water was added to dilute to same level) 10.5 μL. […] The statistics and calculation of experiment results was automatically conducted fluorescence quantitative PCR analyzing software BIO-RAD CFX Manager. Target gene mRNA expression level was calculated by 2-ΔΔCt method, and standardized using the GAPDH mRNA in corresponding specimen a standard.

[3] = test system: ICAM-1 mRNA in mouse renal cortex; test: kidney ischemia reperfusion: real time quantitative PCR of ICAM-1; assay type: in vivo; settings: vs IR group; HEA 5, 7.5, 10 mg/kg; DPCPX 1 mg/kg; DPCPX 1 mg/kg+HEA
Protocol: as §1, §2, §3

[4] = test system: pain writhing response induced by 0.7% acetic acid; test: acetic acid writhing method (analgesia); assay type: in vivo, mouse; settings: for effect of A1 antagonist on analgesic effect of the HEA: DPCPX 1 mg/kg ip 10 minutes before HEA 15 mg/kg
Protocol: Clean male Kunming mice, weight 18-22 g, selecting adenosine AiR antagonist DPCPX. The mice were divided into solvent group, HEA (15 mg/kg) group, DPCPX (1 mg/kg) and DPCPX+HEA (1 mg/kg+15 mg/kg) group; wherein in DPCPX+HEA group, the mouse was peritoneally injected with antagonist, after 10 minutes, the HEA was peritonealy injected. Using writhing method, the treatment dose was given, after 30-40 minutes, 0.7% acetic acid was peritoneally injected, and writhing number of the white mouse within 15 minutes was recorded, calculating the reduction number of pain writhing response induced by 0.7% acetic acid by the HEA.

[5] = test system: rat middle cerebral artery distal obstruction cerebral ischemia model; test: dMCAO cerebral ischemia: TUNEL detection of brain cortex apoptosis; assay type: in vivo
Protocol: Using rat middle cerebral artery distal obstruction cerebral ischemia model. (1) according to rat weight, 10% chloral hydrate (3 ml/kg) was peritoneally injected to anaesthetize. (2) the rat lie on right side and fixed, 1 cm skin incision was cut at connection of inner canthus with external canal, fascia was isolated, muscle tissue, the skull was exposed; (3) a small amount of normal saline was sucked with cotton ball to wipe the skull to ac clear view; (4) fascia was isolated under operating microscope, and the skull was exposed, a hole with diameter of 2 mm circular was drilled at a sute 1/3 of spine; (5) the excess bone debris was washed by a small amount of normal saline, the meninge was push aside, and the middle cerebral artery MCA was exposed; (6) the rat lie in supine position and fixed, an incision was made along middle of throat, and arteria carotis communis CCA on both sides were isolate, pass through with a surgical suture, not ligated temporarily; (7) the MCA was found under operating microscope, burned by a monopolar coagulator, then wash and colled with normal saline; (8) immediately after coagulation, the arteria carotis communis on both sides was ligated, and blocked for 60 min; (9) the wound on head was stitched, after 1 hour the arteria carotis communis on both sides was […], and the skin was stitched, thus the modeling was complete. […]

SMILES | renal tubular epithelial cell ultrastructure (electron microscope) ([1]; HEA 5 mg/kg group) | renal tubular epithelial cell ultrastructure (electron microscope) ([1]; HEA 7.5 mg/kg group) | renal tubular epithelial cell ultrastructure (electron microscope) ([1]; HEA 10 mg/kg group) | TNF-α mRNA expression in renal cortex [2] | ICAM-1 mRNA expression in renal cortex [3] | writhing number ([4]; HEA 15 mg/kg ip, 0.7% acetic acid, within 15 minutes, vs solvent group) | apoptosis rate of cerebral cortex infarction ischemic penumbra (TUNEL) ([5]; dMCAO rat, HEA 7.5 mg/kg ip, vs model group) | renal tubular epithelial cell ultrastructure (electron microscope) ([1]; DPCPX 1 mg/kg alone or DPCPX 1 mg/kg+HEA 5 or 7.5 mg/kg before ischemia) | effect of A1 antagonist on analgesic effect of the HEA [4] | effect of A1 antagonist on analgesic effect of the HEA ([4]; listed as adenosine A1 receptor antagonist) | effect of DPCPX on brain protective effect of HEA (TUNEL) ([5]; DPCPX 1 mg/kg ip + HEA 7.5 mg/kg ip)
OCCNc1ncnc2c1ncn2[C@@H]1O[C@H](CO)[C@@H](O)[C@H]1O [HEA, N(6)-(2-hydroxyethyl)-adenosine] | the entirety is improved compared with ischemia reperfusion group | most of the mitochondria are normal | mitochondria protection is more clear than the IR group | significantly reduce the high expression | significantly reduce the high expression | significantly reduced the writhing number; also recorded: significantly reduce writhing number | significantly reduced; also recorded: significantly reduce the apoptosis rate of rat cerebral cortex infarction ischemic penumbra |  |  |  | 
CCCn1c(=O)c2[nH]c(C3CCCC3)nc2n(CCC)c1=O [DPCPX, reference compound] |  |  |  | significantly increase | not statistically significant |  |  | essentially no mitochondria with complete structure | analgesic effect of the HEA is significantly antagonized | analgesic effect was reduced | blocking brain protective effect of the HAE
